We go through two compounds from ChEMBL document CHEMBL5674870, “Uropathogenic E. coli (UPEC) Infection Induces Proliferation through Enhancer of Zeste Homologue 2 (EZH2)” (PLoS One, 2016).

Molecules are shown by their SMILES. The source made the active and inactive calls. The calls are words filed in the database; no cut-off is given here.

For series [1], the target named is Histone-lysine N-methyltransferase EZH2 (Homo sapiens) (UniProt Q15910). Description: Inhibition of EZH2 in human HT-5637 cells assessed as decrease in uropathogenic Escherichia coli infection-induced WNT3A mRNA level by qRT-PCR analysis. It counts as cell-based.
Series [2] has the same target. The series is described as follows: Inhibition of EZH2 in human HT-5637 cells assessed as decrease in uropathogenic Escherichia coli infection-induced host cell proliferation at 500 nM measured 24 to 72 hrs after infection by immunofluorescence analysis. It counts as cell-based. Particulars: time 24-72 hrs.
Series [3] in a line: Inhibition of KDM6A/6B in human HT-5637 cells assessed as increase in uropathogenic Escherichia coli infection-induced host cell proliferation at 100 nM measured 24 to 72 hrs after infection by immunofluorescence analysis. It counts as toxicity, cell-based. The following applies: human, 5637, 0.1 µM, time 24-72 hrs.
Series [4] can be described thus: Inhibition of KDM6A/6B in human HT-5637 cells assessed as increase in uropathogenic Escherichia coli infection-induced WNT3A mRNA level by qRT-PCR analysis. It counts as toxicity, cell-based. On the technique in general: Real-time PCR tracks product formation cycle by cycle.

Histone-lysine N-methyltransferase EZH2 (Homo sapiens), sequence (Q15910 whole entry, looked up): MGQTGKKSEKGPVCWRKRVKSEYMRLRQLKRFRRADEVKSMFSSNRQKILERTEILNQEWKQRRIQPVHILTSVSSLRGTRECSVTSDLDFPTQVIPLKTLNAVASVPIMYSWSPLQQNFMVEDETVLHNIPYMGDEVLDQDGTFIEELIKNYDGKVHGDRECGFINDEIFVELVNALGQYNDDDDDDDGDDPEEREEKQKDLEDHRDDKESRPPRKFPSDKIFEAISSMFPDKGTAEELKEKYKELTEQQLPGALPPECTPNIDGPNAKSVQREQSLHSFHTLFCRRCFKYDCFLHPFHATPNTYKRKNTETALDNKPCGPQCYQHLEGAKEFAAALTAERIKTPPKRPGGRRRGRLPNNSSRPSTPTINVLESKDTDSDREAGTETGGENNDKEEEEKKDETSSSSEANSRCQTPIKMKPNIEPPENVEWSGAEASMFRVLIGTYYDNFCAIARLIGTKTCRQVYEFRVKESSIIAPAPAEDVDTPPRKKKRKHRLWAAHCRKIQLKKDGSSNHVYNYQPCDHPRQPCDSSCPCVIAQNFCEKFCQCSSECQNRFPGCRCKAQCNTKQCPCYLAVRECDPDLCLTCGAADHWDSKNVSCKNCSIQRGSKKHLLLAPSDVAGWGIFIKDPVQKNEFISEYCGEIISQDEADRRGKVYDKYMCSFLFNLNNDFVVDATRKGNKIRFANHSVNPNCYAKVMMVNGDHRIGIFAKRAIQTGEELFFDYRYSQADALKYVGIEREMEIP

For `CCCc1cc(C)[nH]c(=O)c1CNC(=O)c1cc(-c2ccc(N3CCN(C(C)C)CC3)nc2)cc2c1cnn2C(C)C`, the inhibition entry in series [1] and in series [2] was “Active” each time.

`CCOC(=O)CCNc1cc(N2CCc3ccccc3CC2)nc(-c2ccccn2)n1`: the “inhibition (INH)” value in series [3] and in series [4] was “Active” each time.
